Like-named read-outs stand apart in the source and are kept apart here.
Key:
[1] = tested on: BCBL-1 cells; assay: RNA-Sequencing of compound-treated vs vehicle-treated cells; assay type: cell-based, human; settings: for Ratio, ARC / Ratio, ARRDC3 / Ratio, ATF3 / Ratio, CCDC169-SOHLH2 / Ratio, CD28 / Ratio, CD44 / Ratio, CFAP58 / Ratio, CHAC1 / Ratio, CSF1R / Ratio, DDIT3 / Ratio, DDIT4 / Ratio, FOS / Ratio, IFNG / Ratio, IRF7 / Ratio, LGALS9B / Ratio, MCM5 / Ratio, PRKCB / Ratio, RP11-707M3.3 / Ratio, SOCS3 / Ratio, SPINT1: gene expression, treated vs vehicle BCBL-1 cells
Protocol: RNA-Sequencing (RNA-Seq) of triplicate samples was performed by BGI Americas Corporation using their unique DNBSEQ sequencing technology. The completed RNA-Sequencing data was submitted to NCBI Sequence Read Archive (SRA# # PRJNA813422). Raw sequencing reads were analyzed using the RSEM software (version 1.3.0; human GRCh38 genome sequence and annotation) and gene expression was quantified as previously described. The EBSeq software was utilized to call differentially expressed genes that were statistically significant using a false discovery rate (FDR) less than 0.05. Differentially expressed genes between compounds- and vehicle-treated PEL cells were used as input for the GO enrichment analyses.

[2] = Pharmacokinetics in plasma of mice (LC-MS/MS); settings: male, NOD/SCID, mouse, in vivo
Protocol: The i.p. and p.o. dose were formulated with DMSO/PEG300/Tween80/saline (5/30/10/55). Samples were obtained at 0.25, 0.5, 1, 2, 4, and 8 hours post dosing via tail snipping, transferred into plastic microcentrifuge tubes containing 4 μL of K2-EDTA (0.5 M) as anti-coagulant and placed on wet ice until centrifugation. Harvested blood samples were centrifuged shortly after collection at 4,000 g 4°C for 10 minutes. After centrifugation, the amount of compounds in the plasma was determined using HPLC-coupled tandem mass spectrometry (LC-MS/MS). Values are calculated from arithmetic mean plasma concentrations (n = 3 mice per condition). AUClast and t1/2 were determined using GraphPad Prism v5.0. The bioavailability F (%) = AUClast for p.o. / AUClast for i.p. × 100 [50].

[3] = tested on: JSC-1; assay: WST-1 cytotoxicity assay, JSC-1 (KSHV+ PEL); assay type: cell-based; settings: 72 h
Description: (§1) Fig 2 Identification of newly synthesized dual inhibitors with anti-PEL activities. (A) The binding mode of (+)-JQ1 with BRD4^BD1 (PDB: 3MXF). BRD4^BD1 is shown as hot pink cartoon with gray surface. Asn140 in BRD4^BD1 is shown as sticks and colored in following pattern: atom C hot pink, atom N dark blue, and atom O yellow. (+)-JQ1 is shown as sticks and colored in following patten: atom C hot pink, atom N dark blue, atom O yellow, atom S golden, and atom Cl green. The solvent exposed region (SEG) of (+)-JQ1 are indicated with white arrow. (B) The binding modes of SAHA and entinostat with HDAC2 (PDB: 3MAX). HDAC2 is shown as blue cartoon with gray surface. Asp181 and His183 in HDAC2 are shown as sticks and colored in following pattern: atom C blue, atom N dark blue, and atom O yellow. The catalytic zinc ion in the active site of HDAC2 is shown as black sphere. SAHA is shown as sticks and colored in following pattern: atom C green, atom N dark blue, and atom O yellow. Entinostat is shown as sticks and colored in following pattern: atom C hot pink, atom N dark blue, and atom O yellow. The SEG of SAHA or entinostat is indicated with white arrow. Hydrogen bonds (H-bonds) are presented by red dash lines. (C) The HDACs/BRD4 dual inhibitors 002-011 were designed by fusing the key pharmacophores of (+)-JQ1 (pink) and HDAC inhibitors (blue), SAHA or entinostat, via various chemical linkers (green). (D) Anti-PEL activities of the new compounds. Five KSHV positive and two KSHV negative lymphoma cell lines were treated with indicated concentrations of these compounds for 72 h. Then the cytotoxicity was determined using the WST-1 assay. (+)-JQ1, SAHA and entinostat were used for the comparisons as single inhibitors. The CC50 for each compound was calculated using GraphPad Prism 5.0 software. Error bars represent S.D. for 3 independent experiments.
(§2) Fig 4 Identification of anti-PEL activities for compound 009 stereoisomers. (A) The chemical structures of anti-HDACs/BRD4 bifunctional molecules 009P1 and 009P2, as well as anti-HDACs or anti-BRD4 mono-functional molecules 009N1, 009N2, 009N3, and 009N4. (B-C) Four KSHV+ PEL cell lines were treated with indicated concentrations of 009P1, 009P2 or 009N1-N4 for 72 h, then the cytotoxicity was determined using the WST-1 assay. (D-I) BCBL-1 cells were treated with these compounds at the respective 2× CC50 for 24 h, then cell cycle (D-F) and apoptosis (G-I) were measured by flow cytometry analysis. Error bars represent S.D. for 3 independent experiments, ** = p<0.01 (vs vehicle control).
(§3) The cell viability following treatment with compounds was assessed by the WST-1 assay (Roche, Indianapolis, Indiana, USA) according to the manufacturer’s protocol as described previously. The absorbance signal was measured using a microplate reader (Biotek Synergy 2). The 50% cytotoxic concentration (CC50) for each compound was calculated from these dose-response curves using the software GraphPad Prism v5.0. Data were normalized as the fold change compared to the DMSO control.

[4] = tested on: BCP-1; assay: WST-1 cytotoxicity assay, BCP-1 (KSHV+ PEL); assay type: cell-based; settings: BCP-1, 72 h
Description: as §1, §2, §3

[5] = tested on: BCBL-1; assay: WST-1 cytotoxicity assay, BCBL-1 (KSHV+ PEL); assay type: cell-based; settings: BCBL1, 72 h
Description: as §1, §2, §3

[6] = tested on: BRD4; assay: BRD4 signaling by Western blot (c-Myc expression); assay type: cell-based
[7] = tested on: BC-1; assay: WST-1 cytotoxicity assay, BC-1 (KSHV+ PEL); assay type: cell-based; settings: Homo sapiens, BC1, 72 h
Description: as §1, §2, §3

[8] = tested on: HUVEC; assay: WST-1 cytotoxicity on primary cells HUVEC; assay type: cell-based, human
Protocol: as §3
Supplementary file ppat.1011089.s006.tif: S5 Fig Cytotoxicity of tested compounds on HUVEC. The primary cells HUVEC were treated with indicated concentrations of compounds for 72 h, then cell viability was assessed using the WST-1 assay. The CC50 for each compound was calculated from the dose-response curves using Graphpad Prism 5.0 software. Data was normalized as the fold change compared to the DMSO control. (TIF) Click here for additional data file.

[9] = BCBL-1 cells, 48 h, Western blot
[10] = ip, mice, single i.p. 50 mg/kg, plasma, read-out: AUClast
[11] = ip, mice, single i.p. 50 mg/kg, plasma, read-out: Cmax
[12] = ip, mice, single i.p. 50 mg/kg, plasma, read-out: Tmax
[13] = ip, mice, single i.p. 50 mg/kg, plasma, read-out: t1/2 (converted)
[14] = read-out: KSHV-infected lymphomas CC50, JSC-1
[15] = read-out: KSHV-infected lymphomas CC50, BCP-1
[16] = read-out: KSHV-infected lymphomas CC50, BCBL-1
[17] = read-out: KSHV-infected lymphomas CC50, BC-1

Row | SMILES | Ratio, ARC [1] | Ratio, ARRDC3 [1] | Ratio, ATF3 [1] | Ratio, CCDC169-SOHLH2 [1] | Ratio, CD28 [1] | Ratio, CD44 [1] | Ratio, CFAP58 [1] | Ratio, CHAC1 [1] | Ratio, CSF1R [1] | Ratio, DDIT3 [1] | Ratio, DDIT4 [1] | Ratio, FOS [1] | Ratio, IFNG [1] | Ratio, IRF7 [1] | Ratio, LGALS9B [1] | Ratio, MCM5 [1] | Ratio, PRKCB [1] | Ratio, RP11-707M3.3 [1] | Ratio, SOCS3 [1] | Ratio, SPINT1 [1] | further results
1 | Cc1sc2c(c1C)C(c1ccc(Cl)cc1)=N[C@@H](CC(=O)O[C@H](C)c1ccc(C(=O)Nc3ccccc3N)cc1)c1nnc(C)n1-2 [009P1, (R)-1-(4-((2-aminophenyl)carbamoyl)phenyl)ethyl 2-((S)-4-(4-chlorophenyl)-2,3,9-trimethyl-6H-thieno[3,2-f][1,2,4]triazolo[4,3-a][1,4]diazepin-6-yl)acetate] | 18.81 | 30.72 | 12.86 | 0.3358 | 0.4509 | 0.1954 | 0.1358 | 8.345 | 24.82 | 12.33 | 21.76 | 46.18 | 0.1678 | 23.79 | 0.03812 | 0.2002 | 0.02626 | 0.3443 | 41.42 | 0.1504 | Genes differentially expressed between 009P1- and 009P2-treated PEL cells ([1]; BCBL-1, ≥ 2 fold-change and FDR < 0.05): 473 genes; bioavailability ([2]; 50 mg/kg): 24.5%; AUC(0-t) ([2]; ip, 50 mg/kg): 159000 ng·h/mL; Cmax ([2]; ip, 50 mg/kg): 74600 ng/mL; Tmax ([2]; ip, 50 mg/kg): 1 h; half-life ([2]; ip, 50 mg/kg): 1.66 h; AUC(0-t) ([2]; po, 50 mg/kg): 39000 ng·h/mL; Cmax ([2]; po, 50 mg/kg): 11500 ng/mL; Tmax ([2]; po, 50 mg/kg): 0.5 h; half-life ([2]; po, 50 mg/kg): 1.12 h; CC50 ([3]; read-out: CC50, JSC-1): 300 nM; CC50 ([4]; read-out: CC50, BCP-1): 120 nM; CC50 ([5]; read-out: CC50, BCBL-1): 16 nM; c-Myc expression [6, 9]: decreased; CC50 ([7]; read-out: CC50, BC-1): 42 nM; Cytotoxicity in primary cells HUVEC [8]: much less cytotoxicity
2 | Cc1sc2c(c1C)C(c1ccc(Cl)cc1)=N[C@@H](CC(=O)OC(C)(C)C)c1nnc(C)n1-2 [(+)-JQ1, reference compound] | 21.83 | 27.58 | 28.74 | 0.1299 | 0.05544 | 0.09101 | 0.2089 | 55.65 | 62.41 | 20.73 | 28.37 | 78.64 | 0.1251 | 52.67 | 0.04587 | 0.1471 | 0.06358 | 0.2212 | 37.19 | 0.1876 | AUC(0-t) [2, 10]: 78000 ng·h/mL; Cmax [2, 11]: 28700 ng/mL; Tmax [2, 12]: 1 h; half-life [2, 13]: 2.27 h; CC50 [3, 14]: 41 nM; CC50 [4, 15]: 59 nM; CC50 [5, 16]: 18 nM; c-Myc expression [6]: drastically downregulated; CC50 [7, 17]: 44 nM; Cytotoxicity in primary cells HUVEC ([8]; 72 h, WST-1): moderate cytotoxicity
3 | O=C(CCCCCCC(=O)Nc1ccccc1)NO [SAHA, suberoylanilide hydroxamic acid, reference compound] | 10.26 | 7.834 | 33.64 | 0.1697 | 0.3793 | 0.293 | 0.411 | 53.96 | 3.864 | 16.62 | 5.426 | 21.04 | 0.312 | 5.624 | 0.3605 | 0.4255 | 0.3013 | 0.2461 | 9.781 | – | AUC(0-t) [2, 10]: 12000 ng·h/mL; Cmax [2, 11]: 16600 ng/mL; Tmax [2, 12]: 0.25 h; half-life [2, 13]: 0.72 h; CC50 [3, 14]: 680 nM; CC50 [4, 15]: 1420 nM; CC50 [5, 16]: 41 nM; c-Myc expression [6, 9]: subtle effect; CC50 [7, 17]: 1380 nM; Cytotoxicity in primary cells HUVEC ([8]; 72 h, WST-1): moderate cytotoxicity

Source: paper PMC9879403, “Oncolytic strategy using new bifunctional HDACs/BRD4 inhibitors against virus-associated lymphomas” (PLOS Pathogens, 2023)
